Experimental findings from US20100160442A1, “FORMULATIONS FOR CANCER TREATMENT” (priority 2006, published 2010) are described below.

The nature of data set [1]: Compounding studies: time for drug substance to dissolve in 25% HPBCD. The format is physicochemical. The method, then: 1. 300 mg of BA was added to 30 ml of a 25% HPBCD (containing 0.6% saline) and mixed using a magnetic stirrer. The drug substance dissolved in 4 hours. This is deemed to be an unacceptably long time for a viable manufacturing process and it was decided to evaluate a procedure involving dissolving the drug substance directly in the HPBCD. 2. In a second study 500 mg of BA dissolved in a 50 ml of a 25% HPBCD vehicle (no saline) in approx 90 minutes. The dissolution rate of BA was deemed to be a more acceptable time and provides some prospect for a viable larger scale process. Further excipients could be added after the drug substance has been dissolved.

A short description of data set [2]: Saturated solubility of BA in self emulsifying lipid (SELF) samples, UV 320 nm. The format is physicochemical. On the procedure:
Saturated Solubility Test for Liquid SELF Samples: 2 ml of each liquid SELF was measured into 8 ml screw cap glass bottle using a Finnpipette. Aliquots of 50 mg of the API were then added until the mixture appeared to be saturated. The mixtures were sonicated for 30 minutes, and then observed to see if saturation had been maintained. Aliquots of 25 mg of the API were further added to non-saturated samples while stirring; these were sonicated for a further 30 minutes. This process was repeated until saturation was attained and maintained after sonication.
The liquid samples were then placed in the Variomatic water bath at 25° C. and left to stir for two nights. Each of the SELF samples was purged with nitrogen gas after use to minimize oxidation.
The saturated liquid samples were centrifuged at a speed of 4000 rpm for 10 minutes at 25° C.
Saturated Solubility Test for Semi-Solid SELF Samples: Prior to dispensing, semi-solid lipids were melted in a dry oven at 60° C. The semi-solids were dispensed into screw cap bottles; aliquots of the API were added to attain and maintain saturation. The saturated semi-solids were left stirring at 60° C.
The following day the stirrer was switched off but heating was maintained at 60° C. for 1 hour. This was to allow the dispersed solid particles to sediment. 0.1 ml was taken from the top clear layer of each of the saturated semi-solid samples and diluted with acetonitrile.
UV Analysis: The saturated samples and the lipid vehicles were diluted with acetonitrile at the same ratio. The samples were diluted with acetonitrile to obtain an absorbance between 0.1 to 1. The absorbance of the diluted lipid vehicles were used as the baseline for the absorbance readings of the active sample. The diluted samples were scanned at a fixed wavelength of 320 nm. The concentration of the API was calculated using the E^11 value, derived from the API concentration in acetonitrile.
Saturated Solubility: Saturated solubility was carried out on the six SELF samples (Gattefosse) that were miscible with acetonitrile. These samples were stirred over two nights.
Saturated solubility of freshly prepared lipid samples: Saturated solubility was carried out on each of the freshly prepared semi-solid lipid samples as described above. The results in table 9-8 are based on equilibration of saturated samples over two nights.

≈ marks a conversion by molar mass, not a printed value. Where “and” joins values, the source holds several entries; their conditions need not be identical. Identical values can stand only once.

For the compound `NC(=O)c1ccc(I)c([N+](=O)[O-])c1` [BA, 4-iodo-3-nitrobenzamide], the “Time for drug substance to dissolve” value in data set [1] (300 mg of BA in 30 ml of 25% HPBCD containing 0.6% saline, magnetic stirrer) was 4 h; in data set [1] (500 mg of BA in 50 ml of 25% HPBCD vehicle (no saline)), “approx 90 minutes”. The “Solubility Enhancement vs. water” value in data set [2] (SELF 27A) is 1074; in data set [2] (SELF 27B) it was 524; in data set [2] (SELF 27D), 699; in data set [2] (SELF 27E), 675 and 532; in data set [2] (SELF 27F) it was 804; in data set [2] (SELF 27G), 695. Moreover, the “Mean Conc.” value in data set [2] (SELF 27A (Gattefosse, semi-solid), after 2 nights) came to 215000 µg/mL; in data set [2] (SELF 27A (Gattefosse, semi-solid), after 2 nights, listed as API), 214730 µg/mL; in data set [2] (SELF 27B (Gattefosse, semi-solid), after 2 nights), 105000 µg/mL; in data set [2] (SELF 27D (Gattefosse, liquid), after 2 nights), 140000 µg/mL; in data set [2] (SELF 27E (Gattefosse, liquid), after 2 nights) it was 107000 µg/mL; in data set [2] (SELF 27F (Gattefosse, liquid), after 2 nights), 161000 µg/mL. Moreover, the “Mean Conc.” value in data set [2] (SELF 27G (Gattefosse, semi-solid), after 2 nights) was 139000 µg/mL; in data set [2] (Water) it was 200 µg/mL; in data set [2] (freshly prepared SELF F1, after 2 nights), 185000 µg/mL; in data set [2] (freshly prepared SELF F1, after 2 nights, listed as API), 184760 µg/mL; in data set [2] (freshly prepared SELF F3, after 2 nights) it was 87000 µg/mL; in data set [2] (freshly prepared SELF F4, after 2 nights), 42000 µg/mL. For the same compound, the “Mean Conc.” value is 75000 µg/mL in data set [2] (freshly prepared SELF F5, after 2 nights); 76000 µg/mL in data set [2] (freshly prepared SELF F6, after 2 nights); 135000 µg/mL in data set [2] (freshly prepared SELF F7, after 2 nights). Also, the solubility in data set [2] (water, read-out: Mean Conc.) amounted to 0.2 mg/mL (≈ 685 µM).
